Molecular target: T1, CpomOrco (homomeric) (Cydia pomonella, UniProt H9A5M2)
T1 construct: full-length CDS in pcDNA5/TO, expressed alone in HEK293 cells (HEK293A in methods, HEK293T in results)
T1 sequence (H9A5M2 1-473): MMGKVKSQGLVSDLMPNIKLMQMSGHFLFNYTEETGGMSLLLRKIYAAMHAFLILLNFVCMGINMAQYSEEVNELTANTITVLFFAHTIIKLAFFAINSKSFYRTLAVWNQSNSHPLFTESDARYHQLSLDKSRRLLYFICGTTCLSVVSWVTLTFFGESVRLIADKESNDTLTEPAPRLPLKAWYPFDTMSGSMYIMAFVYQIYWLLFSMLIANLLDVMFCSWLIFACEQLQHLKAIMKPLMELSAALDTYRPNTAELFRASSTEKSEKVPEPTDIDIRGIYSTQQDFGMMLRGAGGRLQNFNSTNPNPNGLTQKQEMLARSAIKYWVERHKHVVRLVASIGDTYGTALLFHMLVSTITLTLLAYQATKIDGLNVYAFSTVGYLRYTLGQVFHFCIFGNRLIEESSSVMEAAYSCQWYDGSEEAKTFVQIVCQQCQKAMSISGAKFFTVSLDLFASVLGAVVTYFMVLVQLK
Test: Fluo-4 calcium imaging in HEK293 cells, Hill fit
Assay type: cell-based
Conditions: read-out: [VUAA1]1/2

CCc1ccc(NC(=O)CSc2nnc(-c3cccnc3)n2CC)cc1 [VUAA1, acetamide, N-(4-ethylphenyl)-2-[[4-ethyl-5-(3-pyridinyl)-4H-1,2,4-triazol-3-yl]thio]-] gave an EC50 of 284 ± 39 µM.

From publication PMC10853936, “Heterologous investigation of metabotropic and ionotropic odorant receptors in ab3A neurons of Drosophila melanogaster” (Frontiers in Molecular Biosciences, 2024)
